Measured values taken from US10039756B2, “Reducing memory loss in mammals suffering from alzheimer's disease” (The Penn State Research Foundation, priority 2013, dated 2018).

Columns and labels:
GAT-3 = biological target: T1, GAT-3 (Mus musculus, UniProt P31650); assay: Tonic GABA current, whole-cell patch clamp in dentate granule cells of hippocampal slices, GAT-3 block; type: cell-based; conditions: 50 μM; AD (5xFAD) dentate granule cells
T1 construct: from tissue; host or cells: mouse hippocampal slices (5xFAD and WT littermates), dentate gyrus
T1 sequence (P31650 1-627): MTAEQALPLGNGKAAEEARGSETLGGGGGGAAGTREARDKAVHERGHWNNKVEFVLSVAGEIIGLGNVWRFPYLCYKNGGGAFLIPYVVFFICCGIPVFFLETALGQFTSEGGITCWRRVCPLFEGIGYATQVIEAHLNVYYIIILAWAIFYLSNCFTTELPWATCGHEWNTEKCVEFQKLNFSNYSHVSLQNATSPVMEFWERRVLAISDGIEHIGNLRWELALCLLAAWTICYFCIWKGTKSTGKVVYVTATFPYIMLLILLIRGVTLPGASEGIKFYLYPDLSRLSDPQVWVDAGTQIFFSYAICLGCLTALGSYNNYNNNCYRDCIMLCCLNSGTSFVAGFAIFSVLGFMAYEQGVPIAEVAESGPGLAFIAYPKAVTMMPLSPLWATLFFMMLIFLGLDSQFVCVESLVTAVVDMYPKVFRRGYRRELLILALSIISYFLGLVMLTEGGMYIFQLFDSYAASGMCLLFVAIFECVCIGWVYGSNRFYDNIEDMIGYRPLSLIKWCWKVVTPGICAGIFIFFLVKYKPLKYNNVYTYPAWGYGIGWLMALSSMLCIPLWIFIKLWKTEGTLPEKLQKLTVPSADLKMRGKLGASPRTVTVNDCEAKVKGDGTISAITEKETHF
Experimental: (§1) Mice were anesthetized with 2.5% Avertin. After decapitation, brains were rapidly dissected out and placed in ice-cold cutting solution containing: 79 mM NaCl, 80 mM sucrose, 26 mM NaHCO3, 10 mM glucose, 2.5 mM KCl, 1.25 mM NaH2PO4, 7 mM MgSO4, and 0.5 mM CaCl2 for tonic current recordings. The cutting solution for field EPSP recordings contained: 230 mM sucrose, 26 mM NaHCO3, 20 mM glucose, 2.5 mM KCl, 1.25 mM NaH2PO4, 10 mM MgSO4, and 0.5 mM CaCl2. Both solutions were bubbled with 95% O2/5% CO2. […]
(§2) Whole-cell voltage clamp recordings were performed on dentate gyrus granule cells using a pipette solution containing: 135 mM CsCl, 5 mM Na-phosphocreatine, 10 mM HEPES, 5 mM EGTA, 4 mM MgATP, 5 mM QX-314, and 0.5 mM Na2GTP (pH 7.3 adjusted with CsOH, 280-290 mOsm/L). […] Data was acquired using pClamp 9 software (Molecular Devices; sampled at 10 kHz and filtered at 1 kHz), and analyzed with Clampfit 9.0 software (Molecular Devices). Field excitatory postsynaptic potentials (fEPSPs) were recorded with glass electrodes filled with 1 M NaCl and 25 mM HEPES (pH 7.3), and were evoked every 20 seconds with a parallel bipolar tungsten electrode (MicroProbes, USA), which was placed at medial perforant path in the dentate gyrus. […]

human GAT-1 polypeptide = human GAT-1 polypeptide (Homo sapiens, UniProt P30531); conditions: cited from earlier work
human GAT-1 polypeptide, sequence (P30531 whole entry): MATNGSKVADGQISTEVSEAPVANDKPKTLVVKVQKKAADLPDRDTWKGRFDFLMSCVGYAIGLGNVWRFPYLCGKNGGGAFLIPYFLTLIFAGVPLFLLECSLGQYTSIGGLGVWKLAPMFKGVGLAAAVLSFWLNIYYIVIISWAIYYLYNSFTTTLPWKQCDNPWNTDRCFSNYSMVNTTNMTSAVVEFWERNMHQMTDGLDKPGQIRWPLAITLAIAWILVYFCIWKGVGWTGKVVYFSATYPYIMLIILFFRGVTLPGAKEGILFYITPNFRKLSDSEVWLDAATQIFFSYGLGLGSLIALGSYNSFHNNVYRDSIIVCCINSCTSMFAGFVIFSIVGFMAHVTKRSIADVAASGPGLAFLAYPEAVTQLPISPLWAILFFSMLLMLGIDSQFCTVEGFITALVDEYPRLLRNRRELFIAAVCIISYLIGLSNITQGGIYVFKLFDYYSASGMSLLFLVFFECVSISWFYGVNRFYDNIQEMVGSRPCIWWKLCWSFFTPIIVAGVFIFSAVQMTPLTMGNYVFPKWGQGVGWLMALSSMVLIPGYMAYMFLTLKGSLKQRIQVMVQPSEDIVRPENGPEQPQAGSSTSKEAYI

LTP in DG = assay: Long-term potentiation (LTP) in dentate gyrus, hippocampal slice field EPSP recordings; type: cell-based, mouse; conditions: 50 μM; 5xFAD dentate granule cells
Experimental: as §1, §2

5xFAD mice = assay: Y-maze spontaneous alternation task; type: in vivo, mouse; conditions: 50 μmol kg-1, i.p., once per day for one week, p<0.05
Experimental: L-655,708 was dissolved at 1 mg/mL in DMSO, and frozen in storage aliquots. The working solution was diluted 10 times in normal saline solution. […] The last injection was administrated 30 minutes before behavioral test.
Spontaneous alternation performance was tested as described elsewhere (Oakley et al., J. Neurosci., 26(40):10129-10140 (2006)). […] It allows the assessment of hippocampus-dependent spatial working memory. Each mouse was placed in the center of a symmetrical Y-maze and was allowed to explore freely through the maze during an 8 minute session. The first two minutes were not included for data analysis because mice were exploring new environment. The total number and the sequence of arm entries in the last 6 minutes were recorded and analyzed. Arm entry was defined as the hind paws of the mice had been completely placed in the arm. Analysis was done blind. The percentage of alternation is the number of triads containing entries into all three arms divided by the maximum possible alternations (the total number of arms entered minus 2)×100.
A behavioral analysis was conducted to test the effect of enhanced tonic inhibition on the cognitive function of 5xFAD animals. […] Therefore, it was concluded that the abnormal tonic inhibition in DG is an important contributing factor toward the learning and memory deficit in AD.

COc1ccc(C(OCCN2CCC[C@H](C(=O)O)C2)(c2ccc(OC)cc2)c2ccc(OC)cc2)cc1 [SNAP-5114, (S)-1-[2-[tris(4-methoxyphenyl)methoxy]ethyl]-3-piperidinecarboxylic acid]
block of tonic GABA current (GAT-3): blocked the majority of the tonic GABA current | IC50 (human GAT-1 polypeptide): > 75 µM | effect on LTP impairment (LTP in DG): rescued the LTP impairment | effect on memory deficit (spontaneous alternation) (5xFAD mice): rescued the memory deficit
